Measurements as given in patent US7803930B2, “Antisense modulation of apolipoprotein B-expression” (Isis Pharmaceuticals, Inc., priority 2002, dated 2010).

Assays:
[1] = High fat fed C57BL/6 mice, 6 week timecourse: serum cholesterol, triglyceride, lipoprotein and glucose levels; assay type: in vivo, mouse; details: for Percent Inhibition HDL / Percent Inhibition LDL / Percent Inhibition VLDL: negative = increase; for Percent Inhibition of serum cholesterol levels: normalized to saline control; for Triglycerides: study end (control 115 mg/dL); for serum cholesterol: study end (control 240 mg/dL); for serum glucose levels: study termination (saline control 300 mg/dL)
Protocol: Male C57BL/6 mice (n=8) receiving a high fat diet (60% kcal fat) were evaluated over the course of 6 weeks for the effects of treatment with the antisense oligonucleotide, ISIS 147764. Control animals received saline treatment (50 mg/kg). A subset of animals received a daily oral dose (20 mg/kg) atorvastatin calcium (Lipitor®, Pfizer Inc.). All mice, except atorvastatin-treated animals, were dosed intraperitoneally every three days (twice a week), after fasting overnight, with 5, 25, 50 mg/kg ISIS 147764 (SEQ ID No: 109) or saline (50 mg/kg) for six weeks. Serum cholesterol and lipoproteins were analyzed at 0, 2 and 6 week interim timepoints. At study termination, animals were sacrificed 48 hours after the final injections and evaluated for levels of target mRNA levels in liver, cholesterol, lipoprotein, triglyceride, liver enzyme (AST and ALT) and serum glucose levels as well as body, liver, spleen and fat pad weights.
(§1) Male C57BL/6 mice (n=8) receiving a high fat diet (60% kcal fat) were evaluated over the course of 6 weeks for the effects of ISIS 147764 on serum cholesterol and triglyceride levels. Control animals received saline treatment (50 mg/kg). Mice were dosed intraperitoneally every three days (twice a week), after fasting overnight, with 5, 25, 50 mg/kg ISIS 147764 (SEQ ID No: 109) or saline (50 mg/kg) for six weeks.
Values in the table are expressed as percent inhibition and are normalized to the saline control.
In addition to serum cholesterol, at study termination, animals were sacrificed 48 hours after the final injections and evaluated for triglyceride levels.
as §1, with “lipoprotein (VLDL, LDL” for “serum cholesterol”, “HDL)” for “triglyceride”
Values in the table are expressed as percent inhibition and are normalized to the saline control. Negative values indicate an observed increase in lipoprotein levels.
as §1, with “glucose” for “cholesterol and triglyceride”
At study termination, animals were sacrificed 48 hours after the final injections and evaluated for serum glucose levels. […] Mice treated with atorvastatin at a daily oral dose of 20 mg/kg had serum glucose levels of 215 mg/dL.

apolipoprotein B mRNA = assay: Lean vs high fat fed C57BL/6 mice (Example 20): target mRNA levels in liver; assay type: in vivo, mouse; details: 50 mg/kg i.p. every three days, six weeks
Protocol: Male C57BL/6 mice were divided into two matched groups; (1) wild-type control animals (lean animals) and (2) animals receiving a high fat diet (60% kcal fat). Control animals received saline treatment and were maintained on a normal rodent diet. After overnight fasting, mice from each group were dosed intraperitoneally every three days with saline or 50 mg/kg ISIS 147764 (SEQ ID No: 109) for six weeks. At study termination and forty eight hours after the final injections, animals were sacrificed and evaluated for target mRNA levels in liver, cholesterol and triglyceride levels, liver enzyme levels and serum glucose levels.

[2] = tested on: mouse apolipoprotein B protein; assay: High fat fed C57BL/6 mice, 6 week timecourse: liver apolipoprotein B protein, immunoblot; assay type: in vivo; details: 5, 25, 50 mg/kg, six weeks
Excerpt: Liver protein samples collected at the end of the treatment period were subjected to immunoblot analysis using an antibody directed to mouse apolipoprotein B protein (Gladstone Institute, San Francisco, Calif.).

[3] = Steatosis following long-term treatment (6, 12 and 20 weeks) in high-fat fed mice: histology and liver triglyceride content; assay type: in vivo, mouse; details: high fat fed C57Bl/6 mice, 25 mg/kg i.p. twice weekly
Protocol: Quantitation of liver triglyceride content is also used to assess steatosis. Tissue triglyceride levels are measured using a Triglyceride GPO Assay (Sigma-Aldrich, St. Louis, Mo.).
Male C57Bl/6 mice were treated with twice weekly intraperitoneal injections of 25 mg/kg ISIS 147764 (SEQ ID NO: 109) or 25 mg/kg ISIS 141923 (SEQ ID NO: 858) for 6, 12 and 20 weeks. Saline treated animals served as controls. Each treatment group contained 4 animals. Animals were sacrificed at 6, 12 and 20 weeks and liver tissue was procured for histological analysis and measurement of tissue triglyeride content.

[4] = tested on: human apolipoprotein B protein (apolipoprotein B-100 and apolipoprotein B-48); assay: Transgenic mice dosing study (Example 52): immunoblot of human apolipoprotein B protein in serum and liver; assay type: in vivo, human transgene in mouse
Protocol: Apolipoprotein B protein in serum was also assessed by immunoblot analysis using an antibody directed to human apolipoprotein B protein (US Biologicals, Swampscott, Mass.).

[5] = C57BL/6NTac-TgN(APOB100) transgenic mice (Example 47): liver enzyme, cholesterol, LDL-cholesterol and triglyceride levels; assay type: in vivo, mouse; details: C57BL/6NTac-TgN(APOB100) mice, 25 mg/kg

GTCCCTGAAGATGTCAATGC (2'-MOE gapmer, further chemistry not given here) [ISIS 147764]
Percent Inhibition HDL ([1]; 5 mg/kg i.p., 0 weeks): 0%
Percent Inhibition LDL ([1]; 5 mg/kg i.p., 0 weeks): 0%
Percent Inhibition VLDL ([1]; 5 mg/kg i.p., 0 weeks): 0%
Percent Inhibition of serum cholesterol levels ([1]; 5 mg/kg i.p., 0 weeks): 0%
Percent Inhibition HDL ([1]; 5 mg/kg i.p., 2 weeks): 5%
Percent Inhibition LDL ([1]; 5 mg/kg i.p., 2 weeks): −30%
Percent Inhibition VLDL ([1]; 5 mg/kg i.p., 2 weeks): 25%
Percent Inhibition of serum cholesterol levels ([1]; 5 mg/kg i.p., 2 weeks): 5%
Percent Inhibition HDL ([1]; 5 mg/kg i.p., 6 weeks): 10%
Percent Inhibition LDL ([1]; 5 mg/kg i.p., 6 weeks): −10%
Percent Inhibition VLDL ([1]; 5 mg/kg i.p., 6 weeks): 10%
Percent Inhibition of serum cholesterol levels ([1]; 5 mg/kg i.p., 6 weeks): 10%
Triglycerides ([1]; 5 mg/kg): 125 mg/dL
serum cholesterol ([1]; 5 mg/kg): 225 mg/dL
serum glucose levels ([1]; 5 mg/kg): 225 mg/dL
Percent Inhibition HDL ([1]; 25 mg/kg i.p., 0 weeks): 0%
Percent Inhibition LDL ([1]; 25 mg/kg i.p., 0 weeks): 0%
Percent Inhibition VLDL ([1]; 25 mg/kg i.p., 0 weeks): 0%
Percent Inhibition of serum cholesterol levels ([1]; 25 mg/kg i.p., 0 weeks): 0%
Percent Inhibition HDL ([1]; 25 mg/kg i.p., 2 weeks): 10%
Percent Inhibition LDL ([1]; 25 mg/kg i.p., 2 weeks): 10%
Percent Inhibition VLDL ([1]; 25 mg/kg i.p., 2 weeks): 30%
Percent Inhibition of serum cholesterol levels ([1]; 25 mg/kg i.p., 2 weeks): 12%
Percent Inhibition HDL ([1]; 25 mg/kg i.p., 6 weeks): 45%
Percent Inhibition LDL ([1]; 25 mg/kg i.p., 6 weeks): 55%
Percent Inhibition VLDL ([1]; 25 mg/kg i.p., 6 weeks): −30%
Percent Inhibition of serum cholesterol levels ([1]; 25 mg/kg i.p., 6 weeks): 45%
Triglycerides ([1]; 25 mg/kg): 150 mg/dL
serum cholesterol ([1]; 25 mg/kg): 125 mg/dL
serum glucose levels ([1]; 25 mg/kg): 190 mg/dL
lowering of serum lipoproteins compared to atorvastatin ([1]; 50 mg/kg): lowering all categories of serum lipoproteins investigated to a greater extent than atorvastatin
Percent Inhibition HDL ([1]; 50 mg/kg i.p., 0 weeks): 0%
Percent Inhibition LDL ([1]; 50 mg/kg i.p., 0 weeks): 0%
Percent Inhibition VLDL ([1]; 50 mg/kg i.p., 0 weeks): 0%
Percent Inhibition of serum cholesterol levels ([1]; 50 mg/kg i.p., 0 weeks): 0%
Percent Inhibition HDL ([1]; 50 mg/kg i.p., 2 weeks): 10%
Percent Inhibition LDL ([1]; 50 mg/kg i.p., 2 weeks): 40%
Percent Inhibition VLDL ([1]; 50 mg/kg i.p., 2 weeks): 40%
Percent Inhibition of serum cholesterol levels ([1]; 50 mg/kg i.p., 2 weeks): 20%
Percent Inhibition HDL ([1]; 50 mg/kg i.p., 6 weeks): 50%
Percent Inhibition LDL ([1]; 50 mg/kg i.p., 6 weeks): 90%
Percent Inhibition VLDL ([1]; 50 mg/kg i.p., 6 weeks): 15%
Percent Inhibition of serum cholesterol levels ([1]; 50 mg/kg i.p., 6 weeks): 55%
Triglycerides ([1]; 50 mg/kg): 85 mg/dL
serum cholesterol ([1]; 50 mg/kg): 110 mg/dL
serum glucose levels ([1]; 50 mg/kg): 180 mg/dL
Percent Change mRNA (apolipoprotein B mRNA; High Fat Group): −87%
Percent Change mRNA (apolipoprotein B mRNA; Lean-control group): −73%
apolipoprotein B protein expression in liver (immunoblot) [2]: decreases apolipoprotein B protein expression in liver in a dose-dependent manner
liver tissue triglyceride content vs saline treated animals ([3]; 6, 12 and 20 weeks): no significant differences
steatosis vs saline control animals (histology) ([3]; 12 and 20 weeks): reduced

ISIS 301012: SEQ ID NO: 247, antisense oligonucleotide targeted to human apolipoprotein B (antisense GCCTCAGTCTGCTTCGCACC; chemistry not given here)
expression of human apolipoprotein B, B-100 and B-48 forms, in liver (immunoblot) [4]: reduction
human apolipoprotein B protein in serum, B-100 and B-48 forms (immunoblot) ([4]; 2, 4, 6 and 12 weeks of treatment): lowered
LDL-cholesterol levels ([5]; 2 weeks of treatment): 22 mg/dL
LDL-cholesterol levels ([5]; 4 weeks of treatment): 17 mg/dL
